Measurements as given in US4474811A, “Anti-inflammatory ophthalmic solution and process for preparing the same” (Kakenyaku Kako Co., Ltd., priority 1981, dated 1984).
Counter-ions that a name gives are not always drawn. Like-named read-outs stand apart in the source and are kept apart here.

How the values were obtained:
[1] = tested on: intraocular pressure elevation and aqueous humor protein increase; settings: rabbits; arachidonic acid; suspensions, FP as aqueous solution; Invest. Ophthalmol., 15(10), 841 to 844 (1976); cited from earlier work
[2] = tested on: eye of the rabbits (pupillary diameter); test: Mydriasis effect of atropine (Test Example 4); type: in vivo, rabbit; settings: 1 w/v % atropine sulfate, 40 μl.
Procedure: Mydriasis induced by atropine instillation was first observed, assuming that a mydriasis treatment is usually performed prior to operation.
The test was performed using 5 rabbits, and a drop (40 μl.) of a 1 w/v % solution of atropine sulfate in physiological salt solution was instilled to the right eye of the rabbits, and the change of status of the eye with lapse of time was observed by the photographic determination of pupillary diameter. The pupillary diameter difference [(the pupillary diameter at each time after instillation)--(the pupillary diameter before instillation)] and rate of mydriasis (%), which was calculated according to the following formula, were determined. [formula] The pupillary diameter difference and the rate of mydriasis in FIG. 5 are the mean values as to 5 rabbits.

[3] = tested on: blood-aqueous barrier; settings: adding IM instillation vs adding no IM instillation; cited from earlier work
[4] = tested on: eye ball; settings: oil preparation, topical instillation to the eye ball; cited from earlier work
[5] = oil preparation; cited from earlier work
[6] = cited from earlier work
[7] = tested on: intraocular pressure; settings: subconjunctival injection, cited from earlier work
[8] = tested on: human eye; test: Irritation of FP to the human eye (general statement); type: in vivo; settings: concentration of FP above 0.2%
Excerpt: Under the coexistence with β-CD or γ-CD, the solubility of FP in a high concentration can be attained and the decrement of the above-mentioned irritation can be attained even by the use of FP in a high concentration. Moreover, an ophthalmic solution containing FP stable for a long term is obtained by coexisting FP with β-CD or γ-CD.

[9] = tested on: biosynthesis of PGs from arachidonic acid; settings: lung homogenate of guinea pig; cited from earlier work
[10] = tested on: quinine or PGs system; settings: compared with known nonsteroidal anti-inflammatory agents; cited from earlier work
[11] = cited from earlier work; remark: listed apart in the source
[12] = tested on: carrageenan-induced edema; settings: administered orally, rat; cited from earlier work

Molecule: COc1ccc(-c2[nH]c3ccccc3c2-c2ccc(OC)cc2)cc1 [indoxole]
- inhibitory effect on the intraocular pressure elevation and aqueous humor protein increase [1]: particularly strong inhibitory effects

Molecule: CN1[C@@H]2CC[C@H]1C[C@@H](OC(=O)C(CO)c1ccccc1)C2 (some centres unmarked) [atropine, atropine sulfate]
- time to maximum pupillary diameter [2]: one
- change in the maximum pupillary diameter ([2]; even after 6 hours from the instillation): no change

Molecule: COc1ccc2c(c1)c(CC(=O)O)c(C)n2C(=O)c1ccc(Cl)cc1 [indomethacin]
- inhibitory effect on the intraocular pressure elevation and aqueous humor protein increase [1]: particularly strong inhibitory effects
- inhibition on increase of permeability of blood-aqueous barrier after operation, relative to no IM instillation [3]: about 3 times
- feeling in use [4]: bad
- stability of the preparation [5]: poor
- side effect ([6]; oral administration in large amounts): digestive trouble

Molecule: polyphloretin phosphate
- effect on intraocular pressure ([7]; glaucomatocyclitic crisis): effect of decreasing the intraocular pressure
- pain [7]: causes pain to a patient and eye pain or smart feeling is strong

Molecule: CC(=O)Oc1ccccc1C(=O)O [aspirin]
- side effect ([6]; in vivo, po): digestive trouble

Molecule: CC(C(=O)O)c1ccc(-c2ccccc2)c(F)c1 (centres unmarked) [FP, 2-(2-fluoro-4-biphenylyl)propionic acid]
- irritation to the human eye [8]: enhanced
- inhibitory effect on biosynthesis of PGs relative to aspirin [9]: 2,280 times
- inhibitory effect on biosynthesis of PGs relative to indomethacin [9]: 10 times
- inhibitory effect on the intraocular pressure elevation and aqueous humor protein increase [1]: particularly strong inhibitory effects
- strength of inhibitory effect [10]: the strongest among known nonsteroidal anti-inflammatory agents
- solubility [11]: limited solubility
- anti-inflammatory effect relative to aspirin [12]: 250 times
- anti-inflammatory effect relative to indomethacin [12]: 14 times

Molecule: Cc1ccc(Cl)c(Nc2ccccc2C(=O)O)c1Cl [meclofenamic acid]
- inhibitory effect on the intraocular pressure elevation and aqueous humor protein increase [1]: particularly strong inhibitory effects
